From ChEMBL document CHEMBL2021830, “Chlorinated englerins with selective inhibition of renal cancer cell growth” (2012)

How the values were obtained:
Assay type in all cases: functional
[1] = tested on: 786-0; test: Growth inhibition of human 786-0 cells after 48 hrs by SRB assay
[2] = tested on: A498; test: Growth inhibition of human A498 cells after 48 hrs
[3] = tested on: ACHN; test: Growth inhibition of human ACHN cells after 48 hrs by SRB assay
[4] = tested on: CAKI-1; test: Growth inhibition of human CAKI-1 cells after 48 hrs by SRB assay
[5] = tested on: RXF 393; test: Growth inhibition of human RXF393 cells after 48 hrs by SRB assay
[6] = tested on: SN12C; test: Growth inhibition of human SN12C cells after 48 hrs by SRB assay
[7] = tested on: TK-10; test: Growth inhibition of human TK10 cells after 48 hrs by SRB assay
[8] = tested on: UO-31; test: Growth inhibition of human UO31 cells after 48 hrs

How did the GI50 ([1]; Homo sapiens, 786-0, 48 h) turn out when `CC(C)[C@@]12C[C@@H](OC(=O)CO)[C@@](C)(O1)[C@@H]1CC[C@@H](C)[C@H]1[C@@H]2OC(=O)/C(Cl)=C/c1ccccc1` was run?
The GI50 was 10000 nM.

And the GI50 ([2]; Homo sapiens, A498, 48 h)?
The GI50 was 28 nM.

And the GI50 ([3]; Homo sapiens, ACHN, 48 h)?
Its GI50 is 41 nM.

And the GI50 ([4]; Homo sapiens, CAKI-1, 48 h)?
The GI50 was 390 nM.

What about the GI50 ([5]; Homo sapiens, RXF 393, 48 h) of the same molecule?
Its GI50 is 59 nM.

What about the GI50 ([6]; Homo sapiens, SN12C, 48 h) of the same molecule?
The GI50 was 560 nM.

What about the GI50 ([7]; Homo sapiens, TK-10, 48 h) of the same molecule?
Its GI50 is 21000 nM.

And the GI50 ([8]; Homo sapiens, UO-31, 48 h)?
The GI50 was 35 nM.

With `CC(C)[C@@]12C[C@@H](OC(=O)CO)[C@@](C)(O1)[C@@H]1CC[C@@H](C)[C@H]1[C@@H]2OC(=O)C(Cl)C(O)c1ccccc1` (single isomer, unassigned) as the molecule, how does the GI50 [1] read?
Its GI50 is 11000 nM.

And the GI50 [2]?
The GI50 was 660 nM.

What about the GI50 [3] of the same molecule?
The GI50 was 1400 nM.

What about the GI50 [4] of the same molecule?
Its GI50 is 5000 nM.

And the GI50 [5]?
The GI50 was 390 nM.

What about the GI50 [6] of the same molecule?
The GI50 was 4700 nM.

And the GI50 [7]?
The GI50 was 27000 nM.

What about the GI50 [8] of the same molecule?
The GI50 was 1900 nM.

For `CC(C)[C@@]12C[C@@H](OC(=O)CO)[C@@](C)(O1)[C@@H]1CC[C@@H](C)[C@H]1[C@@H]2OC(=O)C(Cl)C(Cl)c1ccccc1` (single isomer, unassigned; epimer 1), which GI50 ([1]; Homo sapiens, 786-0, 48 h) is on record?
The GI50 was 12000 nM.

And the GI50 [2]?
Its GI50 is 140 nM.

And the GI50 [3]?
Its GI50 is 140 nM.

And the GI50 [4]?
The GI50 was 420 nM.

And the GI50 ([6]; Homo sapiens, SN12C, 48 h)?
The GI50 was 930 nM.

What about the GI50 ([7]; Homo sapiens, TK-10, 48 h) of the same molecule?
The GI50 was 18000 nM.

And the GI50 [8]?
Its GI50 is 390 nM.

With `CC(C)[C@@]12C[C@@H](OC(=O)CO)[C@@](C)(O1)[C@@H]1CC[C@@H](C)[C@H]1[C@@H]2OC(=O)C(Cl)C(O)c1ccccc1` (single isomer, unassigned; epimer 1) as the molecule, how does the GI50 [1] read?
The GI50 was 1700 nM.

What about the GI50 [2] of the same molecule?
The GI50 was 180 nM.

And the GI50 [3]?
Its GI50 is 320 nM.

And the GI50 [4]?
Its GI50 is 460 nM.

And the GI50 ([5]; Homo sapiens, RXF 393, 48 h)?
Its GI50 is 510 nM.

And the GI50 [6]?
The GI50 was 630 nM.

What about the GI50 ([7]; Homo sapiens, TK-10, 48 h) of the same molecule?
Its GI50 is 17000 nM.

And the GI50 [8]?
The GI50 was 250 nM.

How did the GI50 [2] turn out when `CC(C)[C@@]12C[C@@H](OC(=O)CO)[C@@](C)(O1)[C@@H]1CC[C@@H](C)[C@H]1[C@@H]2OC(=O)C(Cl)C(Cl)c1ccccc1` (single isomer, unassigned; epimer 2) was run?
The GI50 was 67 nM.

What about the GI50 [3] of the same molecule?
The GI50 was 49 nM.

What about the GI50 [4] of the same molecule?
Its GI50 is 160 nM.

What about the GI50 [6] of the same molecule?
The GI50 was 1000 nM.

What about the GI50 [7] of the same molecule?
Its GI50 is 25000 nM.

What about the GI50 [8] of the same molecule?
The GI50 was 160 nM.
